Laboratory results published in PubChem BioAssay AID330 (DTP/NCI, 2004).
Toxic doses and inconclusive results are not listed. How the source made its calls: active means survival T/C of 150% or more; inactive means T/C below 125% in these data. Square brackets hold non-standard residues; d marks the D form. Peptide text beside a SMILES is read from it. ξ: configuration not given here. ξQ = NC(=O)CCC(N)C(=O)O

Test system: P388 leukemia ip, CD2F1 mice, survival T/C
Experiment: NCI In Vivo Anticancer Drug Screen. Data for tumor model P388 Leukemia (intraperitoneal) in CD2F1 (CDF1) mice
Conditions: endpoint: median survival time, higher = longer survival
Procedure, shortened: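 Mice carrying the transplanted tumor received test compound or vehicle. Survival was recorded in each group, and the value is the treated-group measurement divided by that of the vehicle-treated control group.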

[1] = dose: 12.5 mg/kg/injection, schedule: Q04DX003 (ip), vehicle: saline
[2] = dose: 25.0 mg/kg/injection, schedule: Q04DX003 (ip), vehicle: saline
[3] = dose: 50.0 mg/kg/injection, schedule: Q04DX003 (ip), vehicle: saline
[4] = dose: 50.0 mg/kg/injection, schedule: Q01DX009 (ip), vehicle: saline with Tween-80
[5] = dose: 100.0 mg/kg/injection, schedule: Q01DX009 (ip), vehicle: saline with Tween-80
[6] = dose: 200.0 mg/kg/injection, schedule: Q01DX009 (ip), vehicle: saline with Tween-80
[7] = dose: 60.0 mg/kg/injection, schedule: Q01DX005 (ip), vehicle: saline with Tween-80
[8] = dose: 120.0 mg/kg/injection, schedule: Q01DX005 (ip), vehicle: saline with Tween-80
[9] = dose: 240.0 mg/kg/injection, schedule: Q01DX005 (ip), vehicle: saline with Tween-80
[10] = dose: 50.0 mg/kg/injection, schedule: Q01DX005 (ip), vehicle: saline
[11] = dose: 100.0 mg/kg/injection, schedule: Q01DX005 (ip), vehicle: saline
[12] = dose: 200.0 mg/kg/injection, schedule: Q01DX005 (ip), vehicle: saline
[13] = dose: 12.5 mg/kg/injection, schedule: Q01DX009 (ip), vehicle: saline with Tween-80
[14] = dose: 50.0 mg/kg/injection, schedule: Q01DX009 (ip), vehicle: Klucel (hydroxypropylcellulose) (HPC)
[15] = dose: 100.0 mg/kg/injection, schedule: Q01DX009 (ip), vehicle: Klucel (hydroxypropylcellulose) (HPC)
[16] = dose: 200.0 mg/kg/injection, schedule: Q01DX009 (ip), vehicle: Klucel (hydroxypropylcellulose) (HPC)

Measured: T/C

CSc1nc2cc(Cl)ccc2c2c1C=NCCN2
inactive: [1] 97 % of control | [2] 96 % of control | [3] 103 % of control | dose: 50.0 mg/kg/injection, schedule: Q04DX003 (ip), vehicle: suspension in saline 103 % of control

S=C(Nc1ccccc1)Nc1nccs1
inactive: [4] 108 % of control | [5] 107 % of control | [6] 117 % of control

[CH2+][B-]1(C)n2ccc[n+]2[B-](C)(C)[n+]2cccn21
inactive: [7] 90 % of control | [8] 98 % of control | [9] 93 % of control

Nc1nc(C2CCCC2)c(I)c(=O)[nH]1
inactive: dose: 50.0 mg/kg/injection, schedule: Q01DX005 (ip), vehicle: Klucel (hydroxypropylcellulose) (HPC) 105 % of control | dose: 100.0 mg/kg/injection, schedule: Q01DX005 (ip), vehicle: Klucel (hydroxypropylcellulose) (HPC) 108 % of control | dose: 200.0 mg/kg/injection, schedule: Q01DX005 (ip), vehicle: Klucel (hydroxypropylcellulose) (HPC) 92 % of control

O=C(O)c1ccc(NC(C[N+](=O)[O-])C(F)(F)C(F)(F)C(F)(F)F)cc1 (configuration not stated)
inactive: dose: 100.0 mg/kg/injection, schedule: Q01DX001 (ip), vehicle: saline sonified 100 % of control | dose: 200.0 mg/kg/injection, schedule: Q01DX001 (ip), vehicle: saline sonified 100 % of control | dose: 400.0 mg/kg/injection, schedule: Q01DX001 (ip), vehicle: saline sonified 100 % of control

NC(=O)C1C2CC3C(C2O)C31C(N)=O (configuration not stated)
inactive: [10] 91 % of control | [11] 92 % of control | [12] 98 % of control

O=C1O/C(=C/c2cc(Cl)c(O)c(Cl)c2)c2ccccc21
inactive: dose: 100.0 mg/kg/injection, schedule: Q04DX002 (ip), vehicle: saline 96 % of control | dose: 200.0 mg/kg/injection, schedule: Q04DX002 (ip), vehicle: saline 99 % of control | dose: 400.0 mg/kg/injection, schedule: Q04DX002 (ip), vehicle: saline 99 % of control

CSc1nc(=S)c2[nH]c(C)nc2[nH]1
inactive: dose: 6.25 mg/kg/injection, schedule: Q04DX003 (ip), vehicle: saline 96 % of control | [1] 96 % of control | [2] 100 % of control | [3] 100 % of control

c1ccc(-c2n[se]c(-c3ccccc3)n2)cc1
inactive: dose: 12.5 mg/kg/injection, schedule: Q04DX002 (ip), vehicle: saline with Tween-80 102 % of control | dose: 25.0 mg/kg/injection, schedule: Q04DX002 (ip), vehicle: saline with Tween-80 95 % of control | dose: 50.0 mg/kg/injection, schedule: Q04DX002 (ip), vehicle: saline with Tween-80 93 % of control

CC(C)C(NC(=O)[C@H](C(C)C)N1C(=O)c2ccccc2C1=O)C(=O)O (some centres not stated)
inactive: dose: 50.0 mg/kg/injection, schedule: Q01DX005 (ip), vehicle: saline with Tween-80 88 % of control | dose: 100.0 mg/kg/injection, schedule: Q01DX005 (ip), vehicle: saline with Tween-80 96 % of control

CN1C(=O)N(C)C2(C#N)CC2([N+](=O)[O-])C1=O (configuration not stated)
inactive: [13] 89 % of control | dose: 25.0 mg/kg/injection, schedule: Q01DX009 (ip), vehicle: saline with Tween-80 90 % of control

COc1ccc2c(ccc[n+]2C)c1
inactive: dose: 5.0 mg/kg/injection, schedule: Q01DX009 (ip), vehicle: saline with Tween-80 100 % of control | dose: 10.0 mg/kg/injection, schedule: Q01DX009 (ip), vehicle: saline with Tween-80 110 % of control | dose: 20.0 mg/kg/injection, schedule: Q01DX009 (ip), vehicle: saline with Tween-80 110 % of control

BrCCC[P+](c1ccccc1)(c1ccccc1)c1ccccc1
inactive: dose: 8.25 mg/kg/injection, schedule: Q01DX009 (ip), vehicle: saline with Tween-80 116 % of control | [13] 116 % of control

O=C1CSC(=S)N1Cc1ccncc1
inactive: [4] 97 % of control | [5] 98 % of control | [6] 101 % of control

CCOc1cnc(CO)o1
inactive: dose: 100.0 mg/kg/injection, schedule: Q04DX003 (ip), vehicle: saline 103 % of control | dose: 200.0 mg/kg/injection, schedule: Q04DX003 (ip), vehicle: saline 104 % of control | dose: 400.0 mg/kg/injection, schedule: Q04DX003 (ip), vehicle: saline 97 % of control

O=C1OC(=O)C2C3C=CC(C4C=CC43)C12 (configuration not stated)
inactive: dose: 25.0 mg/kg/injection, schedule: Q01DX009 (ip), vehicle: Klucel (hydroxypropylcellulose) (HPC) 106 % of control | [14] 115 % of control | [15] 115 % of control | [16] 97 % of control

COc1ccc(C2CC(=O)NC(N)=N2)c(O)c1 (configuration not stated)
inactive: dose: 50.0 mg/kg/injection, schedule: Q01DX009 (ip), vehicle: saline 103 % of control | dose: 100.0 mg/kg/injection, schedule: Q01DX009 (ip), vehicle: saline 104 % of control | dose: 200.0 mg/kg/injection, schedule: Q01DX009 (ip), vehicle: saline 103 % of control

C=C1C[C@H](O)[C@H]2C(C[Se]c3ccccc3)C(=O)O[C@@H]2[C@H]2[C@H](C)C(=O)C[C@@H]12 (some centres not stated)
inactive: [7] 97 % of control | [8] 95 % of control | [9] 92 % of control

Cc1nn(C(C)C(=O)N(C)C)c(Br)c1Br (configuration not stated)
inactive: [14] 99 % of control | [15] 108 % of control | [16] 111 % of control

COc1ccc([C@@H]2c3cc4c(cc3C[C@H]3COC(=O)[C@@H]32)OCO4)cc1OC
inactive: dose: 25.0 mg/kg/injection, schedule: Q04DX002 (ip), vehicle: Klucel (hydroxypropylcellulose) (HPC) 108 % of control | dose: 100.0 mg/kg/injection, schedule: Q04DX002 (ip), vehicle: Klucel (hydroxypropylcellulose) (HPC) 124 % of control

NC(=O)CCC(N)C(=O)NCC(=O)O (configuration not stated) (H-[ξQ]-Gly-OH)
inactive: dose: 12.5 mg/kg/injection, schedule: Q01DX005 (ip), vehicle: distilled water + Tween-80 106 % of control | dose: 25.0 mg/kg/injection, schedule: Q01DX005 (ip), vehicle: distilled water + Tween-80 109 % of control | dose: 50.0 mg/kg/injection, schedule: Q01DX005 (ip), vehicle: distilled water + Tween-80 104 % of control | dose: 100.0 mg/kg/injection, schedule: Q01DX005 (ip), vehicle: distilled water + Tween-80 109 % of control | dose: 200.0 mg/kg/injection, schedule: Q01DX005 (ip), vehicle: distilled water + Tween-80 113 % of control

O[C@@H]1c2sccc2C2NC21 (some centres not stated)
inactive: dose: 50.0 mg/kg/injection, schedule: Q01DX001 (ip), vehicle: saline 98 % of control | dose: 100.0 mg/kg/injection, schedule: Q01DX001 (ip), vehicle: saline 95 % of control | dose: 200.0 mg/kg/injection, schedule: Q01DX001 (ip), vehicle: saline 98 % of control

CCCCCCCCCCCCOCC[N+](CCO)(CCO)Cc1ccccc1
inactive: dose: 0.25 mg/kg/injection, schedule: Q01DX009 (ip), vehicle: saline 100 % of control | dose: 0.5 mg/kg/injection, schedule: Q01DX009 (ip), vehicle: saline 100 % of control | dose: 1.0 mg/kg/injection, schedule: Q01DX009 (ip), vehicle: saline 100 % of control

CCOP(=O)(O)C1CCCC(C)[N-]1.CCOP(=O)(O)C1CCCC(C)[N-]1.CCOP(=O)(O)C1CCCC(C)[N-]1.[Ti+3] (configuration not stated)
inactive: dose: 50.0 mg/kg/injection, schedule: Q01DX001 (ip), vehicle: suspension in saline 94 % of control | dose: 100.0 mg/kg/injection, schedule: Q01DX001 (ip), vehicle: suspension in saline 99 % of control | dose: 200.0 mg/kg/injection, schedule: Q01DX001 (ip), vehicle: suspension in saline 88 % of control

CC(C)(C)OC(=O)N1CCCC1C(=O)N1CCCC1C(=O)Oc1ccccc1 (configuration not stated)
inactive: [10] 100 % of control | [11] 100 % of control | [12] 100 % of control

O=C1OC2(CCCCC2)N(c2ccccc2)C(=O)/C1=C/Nc1ccc(Cl)cc1
inactive: [4] 98 % of control | [5] 99 % of control | [6] 92 % of control

CCOC(=O)c1c(C)cc2c(CO)n[nH]c(=O)c2c1C
inactive: [4] 102 % of control | [5] 100 % of control | [6] 99 % of control
